Data on one molecule can be found in patent publication US20120004188A1, “USE OF RANOLAZINE FOR TREATING PULMONARY HYPERTENSION” (Gilead Sciences, Inc., priority 2010, published 2012).

Read-outs that look alike come from different tables or passages of the source.

Data set [1] in a line: Plasma concentration of RAN given in diet to rats. Conditions: male, Sprague-Dawley, oral, rat, read-out: plasma concentrations. It counts as in vivo. The text has this: Male Sprague-Dawley rats were given a single injection of MCT (60 milligrams per kilogram, s.c.) at study inception and randomized into three groups; MCT, low dose RAN (0.25% weight of RAN over weight of chow), and high dose (0.5% weight of RAN over weight of chow) RAN. RAN was given in diet for 28 days mixed in standard rodent chow containing 0.25% or 0.5% RAN for low and high doses, respectively. These concentrations of RAN yielded plasma concentrations of 1-2 micromolar and 5-7 micromolar, respectively. A control group received a sub-cutaneous (s.c.) saline injection and was fed standard rodent chow. Pulmonary hemodynamics, RV function, and RV hypertrophy was assessed at endpoint (day 28 following MCT administration). Alpha-smooth muscle actin (α-SMA) staining on lung tissue sections were carried out to assess pulmonary vascular remodeling at day 28 as well.

Data set [2] deals with pulmonary hypertension or PAH. The experiment in a line: Right ventricular function, exercise capacity and quality of life in patients with pulmonary hypertension or PAH. The note with it: contemplated result. The data set is classed as in vivo. The text has this: To ascertain the improvement in right ventricular function in patients suffering from pulmonary hypertension or pulmonary arterial hypertension (PAH), the following parameters are examined: • Exercise capacity and quality of life • RV subendocardial perfusion using adenosine cardiac MRI studies • Exercise-induced changes in RV function determined non-invasively using comprehensive Doppler and tissue Doppler echocardiography along with determination of right ventricular—pulmonary vascular coupling and pulmonary vascular impedance spectra • RV contractility and comprehensive pressure-volume analysis using invasive hemodynamics, 2D and 3D echocardiography, and cardiac MRI Note that the aforementioned endpoints use a combination of invasive and non-invasive techniques. Echocardiography techniques are best suited for exercise studies. Echocardiographic RV volume data can be normalized to MRI RV volume data, and echocardiographic estimation of RV pressures can be normalized to invasive RV pressure data, thereby increasing the accuracy of echocardiographic analysis of RV structure and function.

Data set [3] concerns MCT-induced PAH and RV dysfunction. The data set can be described thus: Monocrotaline (MCT)-induced chronic PAH and RV dysfunction model in rats. The data set is classed as in vivo, Male Sprague-Dawley rats. Conditions: for RV hypertrophy, RV(milligrams)/LV(milligrams) / plasma BNP levels / decrease in RV ejection fraction: day 28; for RV hypertrophy, RV(milligrams)/LV(milligrams): MCT 0.55±0.04; for plasma BNP levels: MCT 590±106, control 170±90; for decrease in RV ejection fraction: MCT −47±7%; for pulmonary systolic pressure: MCT 84±7, control 29±1; for RV systolic pressure: MCT 86±7, control 26±1. The text has this: As is discussed in detail hereinabove, ranolazine is an anti-anginal drug that inhibits the late sodium current (INa) in cardiomyocytes. Late INa is increased during conditions of ischemia and hypoxia, and causes intracellular Ca^2+ overload by increasing the amount of intracellular Na^+ available for exchange via the Na^+—Ca^2+ exchanger (NCX). […] Monocrotaline or MCT (a poisonous crystalline alkaloid found in a leguminous plant of the genus Crotalaria) induces progressive pulmonary arterial hypertension (PAH) in rats that results in RV hypertrophy, contractile dysfunction, and eventually RV failure. Both human PAH and MCT-induced PAH models are characterized by hypoxia and increased ROS production but the role of late INa in this model has not been investigated. Therefore, the present example evaluates the efficacy of RAN to prevent MCT-induced PAH and RV dysfunction. Male Sprague-Dawley rats were given a single injection of MCT (60 milligrams per kilogram, s.c.) at study inception and randomized into three groups; MCT, low dose RAN (0.25% weight of RAN over weight of chow), and high dose (0.5% weight of RAN over weight of chow) RAN. RAN was given in diet for 28 days mixed in standard rodent chow containing 0.25% or 0.5% RAN for low and high doses, respectively. These concentrations of RAN yielded plasma concentrations of 1-2 micromolar and 5-7 micromolar, respectively. A control group received a sub-cutaneous (s.c.) saline injection and was fed standard rodent chow. Pulmonary hemodynamics, RV function, and RV hypertrophy was assessed at endpoint (day 28 following MCT administration). Alpha-smooth muscle actin (α-SMA) staining on lung tissue sections were carried out to assess pulmonary vascular remodeling at day 28 as well.

In data set [4] the test system is right ventricular remodeling following acute myocardial infarction. The data set can be described thus: Murine model of large anterior wall acute myocardial infarction (permanent ligation of the left coronary artery). It counts as in vivo, Male Imprinting Control Region (ICR) mice. Conditions: 30 mg/kg i.p. every 6 hours for 7 days. The protocol: Male Imprinting Control Region (ICR) mice underwent permanent coronary artery ligation of the left coronary artery and treated with vehicle (saline) or ranolazine 30 mg/kg i.p. every 6 hours (N=10-12 per group) for 7 days starting at the time of ligation. Infarct size was measured early using Masson's trichrome staining. Transthoracic echocardiography was performed prior to surgery and 7 days later to measure left ventricular and right ventricular dimensions and function.

Setting [5] is: high dose RAN (0.5% in chow), day 28 after MCT.
Where [6] appears, read: echocardiography at day 7, versus vehicle-treated mice.

Take `COc1ccccc1OCC(O)CN1CCN(CC(=O)Nc2c(C)cccc2C)CC1` (racemic) [ranolazine, ±-N-(2,6-dimethylphenyl)-4-[2-hydroxy-3-(2-methoxyphenoxy)-propyl]-1-piperazineacetamide]: in data set [1] (0.25 % weight of RAN over weight of chow, low dose RAN, 0.25% in chow), the concentration at 28 days lay within 1 to 2 µM. Moreover, the concentration at 28 days in data set [1] (0.5 % weight of RAN over weight of chow, high dose RAN, 0.5% in chow) is 5 to 7 µM. In data set [2], the “exercise capacity and quality of life” value is “improve exercise capacity and quality of life”; the “pain associated with pulmonary hypertension or PAH” value is on record as “ameliorates pain”. Moreover, in data set [3] (0.25% and 0.5% RAN in chow, 28 days), the “MCT induced changes (PAH and RV dysfunction), overall” value is “significantly and dose-dependently attenuated”. Moreover, in data set [3] (high dose RAN (0.5% in chow)), the “RV hypertrophy, RV(milligrams)/LV(milligrams)” value is on record as 0.32±0.03; the “plasma BNP levels” value came out at 60±20 picograms/milliliter; the “decrease in RV ejection fraction” value is given as −10±8%. In addition, in data set [3] (setting [5]), the pulmonary systolic pressure stood at 40±4 millimeters Hg and the RV systolic pressure is reported as 39±4 millimeters Hg. Moreover, in data set [3] (low dose RAN (0.25% in chow)), the “RV hypertrophy, RV(milligrams)/LV(milligrams)” value is 0.4±0.03; the “plasma BNP levels” value was 180±30 picograms/milliliter; the “decrease in RV ejection fraction” value is −17±11%. The pulmonary systolic pressure in data set [3] (low dose RAN (0.25% in chow), day 28 after MCT 60 mg/kg s.c.) worked out at 59±5 millimeters Hg. The molecule also returned an RV systolic pressure in data set [3] (low dose RAN (0.25% in chow), day 28 after MCT) of 58±5 millimeters Hg. Moreover, the “pulmonary vascular remodeling in intra-acinar arteries (ratio of vessel wall thickness to lumen diameter)” value in data set [3] (α-SMA staining of lung sections, day 28, compared to MCT animals) is given as “significantly reduced remodeling”. Also, the infarct size result in data set [4] (Masson's trichrome staining) is reported as “absence of any measurable effects”. Further, in data set [4] (echocardiography at day 7), the “LV function and dimension” value is on record as “absence of any measurable effects”. For the same molecule, in data set [4] (setting [6]), the “RV dimension (RV diastolic and systolic areas)” value is “significant preservation”; the “RV function (TAPSE and RV fractional area change)” value is given as “significant preservation”.
